Data from PMC8954220, “Sparsomycin Exhibits Potent Antiplasmodial Activity In Vitro and In Vivo” (Pharmaceutics, 2022).
Like-named read-outs stand apart in the source and are kept apart here.

Key:
P. falciparum 3D7 [1] = assay: SYBR Green I-based fluorescence in vitro growth inhibition assay; format: cell-based, Plasmodium falciparum; settings: for IC50: Plasmodium falciparum, read-out: IC50 P. falciparum 3D7
Experimental: (§1) P. falciparum strains 3D7 and K1 were cultivated in 2% washed human O-positive erythrocytes (supplied by Japanese Red Cross Society, Hokkaido, Japan) using a multi-gas incubator (37 °C, 5% CO2 and 5% O2).
(§2) Briefly, test compounds were diluted in complete medium to eight desired concentrations (2-fold serial dilution). […] Next, 50 μL of synchronous parasites at 0.5% parasitemia and 2% hematocrit was seeded in a 96-well plate containing 50 μL of test compounds. The 96-well plate was incubated for 72 h at 37 °C, 5% CO2 and 5% O2. Next, 100 μL of lysis buffer containing 0.02% (v/v) SYBR Green I was added to each well and mixed and then the 96-well plate was incubated at room temperature for 2 h in the dark. […] Erythrocytes treated with 1% DMSO were used as a negative control and wells containing only test compounds and erythrocytes were used to correct background signals. In at least three independent trials, the inhibition assay was performed in quadruplicate for each concentration.

P. falciparum K1 = assay: as above; format: cell-based, Plasmodium falciparum; settings: for IC50: Plasmodium falciparum, read-out: IC50 P. falciparum K1
Experimental: as §1, §2

mice = settings: i.p. administration; cited from earlier work
[2] = test system: patients (with advanced carcinoma); set-up: method as in PMID 5928140; settings: daily doses; after 13 days (total dose 0.24 mg/kg) and 15 days (total dose 0.15 mg/kg); cited from earlier work
P. berghei ANKA = assay: Complicated rodent malaria model, survival (Peters' 4-day test or 7-day regimen); format: in vivo, C57BL/6 J mice; settings: up to 25 dpi
Experimental: Male C57BL/6 J mice (8 weeks old with body weight of 20–25 g; six mice per group) were purchased from Japan CLEA (Tokyo, Japan). The mice were allowed free access to water and food (CLEA Rodent Diet CE-2; Japan CLEA, Tokyo, Japan). The room temperature (24 °C), relative humidity (50%) and lighting (light from 8 a.m. to 8 p.m.) were adjusted and controlled. P. yoelii 17XNL and P. berghei ANKA were recovered from frozen packed erythrocyte stocks via passage in mice following intraperitoneal (i.p.) injection. Challenge experiments were performed with i.p. injections of 1 × 10^7 fresh infected erythrocytes from donor mice (designated as 0 days post-infection (dpi)). Approximately 2 h after the injection, 2 μL of blood was collected from the tip of the mice’s tail and the parasitemia levels were checked using Giemsa-stained thin blood smears. When the parasitemia level reached 1%, the infected mice were intraperitoneally treated with vehicle (1 × PBS) or Sm at a dose of 100 or 300 μg/kg (modified from reported IC50 in Ref. [22]) once daily for 7 days (0–6 dpi; modified Peters’ test) for P. yoelii 17XNL and 300 μg/kg once daily for 4 (0–3 dpi; Peters’ 4-day test) or 7 days (0–6 dpi, [23]) for P. berghei ANKA. The survival and clinical signs of mice were monitored daily after infection. […]

P. yoelii 17XNL = assay: Uncomplicated rodent malaria model, 7-day treatment (modified Peters' test); format: in vivo, C57BL/6 J mice
Experimental: Male C57BL/6 J mice (8 weeks old with body weight of 20–25 g; six mice per group) were purchased from Japan CLEA (Tokyo, Japan). The mice were allowed free access to water and food (CLEA Rodent Diet CE-2; Japan CLEA, Tokyo, Japan). The room temperature (24 °C), relative humidity (50%) and lighting (light from 8 a.m. to 8 p.m.) were adjusted and controlled. P. yoelii 17XNL and P. berghei ANKA were recovered from frozen packed erythrocyte stocks via passage in mice following intraperitoneal (i.p.) injection. Challenge experiments were performed with i.p. injections of 1 × 10^7 fresh infected erythrocytes from donor mice (designated as 0 days post-infection (dpi)). Approximately 2 h after the injection, 2 μL of blood was collected from the tip of the mice’s tail and the parasitemia levels were checked using Giemsa-stained thin blood smears. When the parasitemia level reached 1%, the infected mice were intraperitoneally treated with vehicle (1 × PBS) or Sm at a dose of 100 or 300 μg/kg (modified from reported IC50 in Ref. [22]) once daily for 7 days (0–6 dpi; modified Peters’ test) for P. yoelii 17XNL and 300 μg/kg once daily for 4 (0–3 dpi; Peters’ 4-day test) or 7 days (0–6 dpi, [23]) for P. berghei ANKA. The survival and clinical signs of mice were monitored daily after infection. Mice with high clinical signs (arched back, immobility, >20% body weight loss and pain sign) were euthanized immediately. Parasitemia in P. yoelii 17XNL-infected mice was observed daily using Giemsa-stained thin blood smears (up to 30 dpi).
A p-value of <0.05 was considered statistically significant and is shown as an asterisk or a symbol, defined in each table/figure legend together with the name of the test used.

retinas of animals = test system: retinas of animals; set-up: method as in PMID 3310108; settings: animals treated with toxic doses; cited from earlier work
[3] = In vitro cytotoxicity, cell viability assay (CCK-8); settings: human, human foreskin fibroblasts (HFFs)
Experimental: A cell viability assay was used to evaluate the cytotoxic action of Sm as described previously [18]. Briefly, a 100 μL cell suspension was seeded in a 96-well plate at a concentration of 1 × 10^5 cells/mL in DMEM containing 10% FBS and incubated for 48 h at 37 °C and 5% CO2. Next, 2-fold dilutions (total of eight concentrations) of test compounds in DMEM were added in quadruplicate to each well and incubated for an additional 72 h.
Data were analyzed using GraphPad Prism 8 (GraphPad Software, Inc., La Jolla, CA, USA). IC50 or CC50 values were calculated from three independent experiments using a non-linear regression fit to logarithm concentration value of the compound versus inhibition percentage of parasite or cell growth, respectively.

P. falciparum 3D7 [4] = assay: Microscopic analysis of parasitemia and morphology (Giemsa-stained thin blood smears); format: cell-based, Plasmodium falciparum
Experimental: The parasites were tightly synchronized using a two-step sorbitol treatment protocol and used at the ring stage with 0.5% parasitemia and 2% hematocrit. Sm (50 and 10 nM) in complete medium and 1% DMSO in complete medium were used as the treated and untreated groups, respectively, in this assay. Subsequently, the Giemsa-stained thin blood smears of each treatment group were prepared after 1, 24, 48, or 72 h of incubation. After 72 h, incubation was continued after changing the medium in either the presence (unwashed group) or absence (washed group) of Sm for up to 144 h. Subsequently, the Giemsa-stained thin blood smears of each treatment group were prepared at 96, 120 and 144 h. The blood smears were observed using a BZ-900 all-in-one microscope (Keyence BioRevo, Tokyo, Japan). The parasitemia levels were determined by enumerating the number of infected erythrocytes in relation to uninfected erythrocytes (a minimum of 500 cells were counted). The assay was performed in triplicate for each concentration and time point.

[5] = Erythrocyte hemolysis assay; format: cell-based; settings: human, 3 h at 37 °C, mean ± SD, read-out: RBC Hemolysis Rate (%) at 100 μM
Experimental: An erythrocyte hemolysis assay was performed as previously described [21]. Briefly, 100 μL of each compound (final concentration, 100 μM) in 1× phosphate-buffered saline (PBS) was seeded in a 96-well plate and 100 μL of a 3% erythrocyte suspension in PBS was added. The plate was incubated for 3 h at 37 °C, 5% CO2 and 5% O2 and then centrifuged at 1300× g for 5 min. Subsequently, 100 μL of the supernatant of each mixture was transferred to a new 96-well plate and the absorbance was recorded at 540 nm. […] The erythrocyte hemolysis rate was calculated using the following formula: hemolysis rate = ([Asample − Anegative control]/[Apositive control − Anegative control] × 100), where A is absorbance [21]. The experiments were performed in triplicate and repeated three times independently.

Q: For `C[C@@H]1CC[C@H]2[C@@H](C)C(=O)O[C@@H]3O[C@@]4(C)CC[C@@H]1[C@]32OO4` [Artemisinin, artemisinin, reference compound], which IC50 (P. falciparum 3D7 [1]; 3D7, 72 h exposure, mean ± SD of three independent experiments) is on record?
A: 13.2 ± 2.66 nM

Q: And the IC50 (P. falciparum K1; K1, 72 h exposure, mean ± SD of three independent experiments)?
A: 19.9 ± 1.51 nM

Q: Which IC50 (P. falciparum 3D7 [1]; 3D7, 72 h) does the source give for `CCN(CC)CCCC(C)Nc1ccnc2cc(Cl)ccc12` (stereo not drawn) [Chloroquine, Chloroquine diphosphate, reference compound] here?
A: 26.2 ± 3.66 nM

Q: What about the IC50 (P. falciparum K1; K1, 72 h) of the same compound?
A: 740 ± 95.7 nM

Q: For `CSC[S@+]([O-])C[C@H](CO)NC(=O)/C=C/c1c(C)[nH]c(=O)[nH]c1=O` [Sparsomycin, sparsomycin], which LD50 (mice) is on record?
A: 170 to 380 μg/kg per injection

Q: And the “Patients developing ring scotoma (Sm-related retinopathy)” value [2]?
A: two out of five patients

Q: And the Prolongation of survival (P. berghei ANKA; 300 μg/kg i.p. once daily for 4 days, significant (p < 0.05))?
A: 33.33%

Q: And the Prolongation of survival (P. berghei ANKA; 300 μg/kg i.p. once daily for 7 days, statistically insignificant (p > 0.05))?
A: 33.33%

Q: And the “Parasitemia levels versus control” value (P. yoelii 17XNL; 100 μg/kg i.p. once daily for 7 days)?
A: did not significantly alter

Q: And the Parasitemia versus control (P. yoelii 17XNL; 300 μg/kg i.p. once daily for 7 days)?
A: significantly reduced

Q: What about the Parasitemia peak (P. yoelii 17XNL; 300 μg/kg i.p. once daily for 7 days, peak at 11 dpi, control 40.13% (12 dpi)) of the same compound?
A: 18.85%

Q: What about the Mortality (P. yoelii 17XNL; 100 or 300 μg/kg i.p. once daily for 7 days, up to 30 dpi) of the same compound?
A: No mortality

Q: And the “Pathological changes in the retinas” value (retinas of animals)?
A: no observable pathological changes

Q: And the CC50 at 72 h [3]?
A: 1140 ± 30 nM

Q: What about the IC50 (P. falciparum 3D7 [1]; 3D7, 72 h) of the same compound?
A: 12.1 ± 4.41 nM

Q: What about the “SI for P. falciparum 3D7” value (P. falciparum 3D7 [1]; selectivity index, ratio between IC50 (3D7) and CC50 (HFF)) of the same compound?
A: 94.45

Q: What about the IC50 (P. falciparum K1; K1, 72 h) of the same compound?
A: 25.4 ± 8.15 nM

Q: What about the “Resistance Index” value (P. falciparum K1; ratio between the IC50 values of P. falciparum K1 and 3D7) of the same compound?
A: 2.1

Q: What about the “SI for P. falciparum K1” value (P. falciparum K1; selectivity index, ratio between IC50 (K1) and CC50 (HFF)) of the same compound?
A: 44.83

Q: What about the Parasite morphology (P. falciparum 3D7 [4]; 50 nM for 72 h) of the same compound?
A: induced morphological alterations, including shrinkage

Q: What about the “Parasitemia levels along the incubation period” value (P. falciparum 3D7 [4]; 10 or 50 nM, 1–72 h) of the same compound?
A: not increased

Q: What about the “Parasite life cycle stage under exposure” value (P. falciparum 3D7 [4]; 10 or 50 nM, 1–72 h of incubation, ring-stage synchronized) of the same compound?
A: blocked in the ring stage

Q: What about the “Parasite growth after removal of compound (washed group)” value (P. falciparum 3D7 [4]; 72 h exposure to 10 or 50 nM, then further 72 h without compound (up to 144 h)) of the same compound?
A: not restored

Q: What about the hemolysis at 3 h, 100 µM [5] of the same compound?
A: 1.04 ± 0.23%
